Results as given in patent publication US7858084B2, “Methods of treatment with renalase (monoamine oxidase C)” (Yale University, priority 2005, dated 2010).
Read-outs that look alike come from different tables or passages of the source.

What was measured:
[1] = tested on: renalase
Description: Horizontal bars at top of figure indicate period of 5 minute epinephrine infusions.

[2] = biological target: renalase (Rattus norvegicus, UniProt Q5U2W9); conditions: CKD rats compared with control rats
renalase (Rattus norvegicus, UniProt Q5U2W9), sequence (Q5U2W9 18-315): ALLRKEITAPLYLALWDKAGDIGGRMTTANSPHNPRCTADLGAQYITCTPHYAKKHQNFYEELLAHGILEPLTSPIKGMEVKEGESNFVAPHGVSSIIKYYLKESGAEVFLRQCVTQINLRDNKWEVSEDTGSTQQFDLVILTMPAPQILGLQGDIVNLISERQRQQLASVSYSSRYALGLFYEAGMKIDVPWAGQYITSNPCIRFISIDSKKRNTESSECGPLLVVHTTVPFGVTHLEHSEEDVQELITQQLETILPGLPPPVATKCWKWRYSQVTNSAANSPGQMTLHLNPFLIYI

Structure (SMILES): CNC[C@H](O)c1ccc(O)c(O)c1 [epinephrine]
- renalase protein levels in blood ([1]; second administration 30 minutes later): only a modest decline
- renalase protein levels in blood ([1]; shortly after an initial infusion of epinephrine): drop significantly
- renalase protein levels in blood ([1]; within ten minutes of the initial infusion): recover and exceed initial protein levels
- magnitude and duration of blood renalase activation [2]: significantly lower
